{
  "source": "patent US5593678A",
  "about": "“Protection of teleost fish” (University of Georgia Research Foundation, priority 1994, dated 1997)",
  "key": {"[1]": {"system": "NCC in anterior kidney tissue", "details": "for % NCC in anterior kidney tissue / Total cells/ml: 50 μM"}, "[2]": {"system": "Edwardsiella ictaluri", "details": "approximately 10 μM to approximately 25 μM, 18-24 hours; FIG. 10; listed as sodium orthovanadate"}, "[3]": {"system": "protein phosphatase", "details": "cited from earlier work"}, "[4]": {"system": "Na^+ /K^+ ATPase", "details": "cited from earlier work"}, "[5]": {"system": "NCC from stressed fish (lysis of IM-9 target cells)", "details": "100:1, control 0.9", "method": "(§1) A ^51 Cr release assay was used to determine cytotoxicity. Target cells at 1-2×10^6 cells/ml were labeled with 100 μCi of sodium chromate (Amersham, Arlington Heights, Ill.). NCC effector cells were treated as previously described [Evans et al. (1988) supra], centrifuged (500 g), and resuspended in media and added at different E:T ratios to the labeled target cells in round-bottomed 96-well microtiter plates. This mixture was incubated (25° C.) for 4-6 hours and 100 μl of each supernatant was removed to determine radioactivity (Beckman Biogamma II Counter; Beckman Instruments, Irvine, Calif.). The results are expressed as either percentage specific release (SR)=[(test release--spontaneous release)/(total release--spontaneous release)]×100; percent inhibition=[(percentage control SR--percentage test SR)/percentage control SR]×100; and percentage increase=(percentage test SR--percentage control SR)/percentage control SR.\nA common observation in fish exposed to stress, e.g., toxicants, drastic temperature changes, handling, etc., is the temporary loss of NCC activity."}, "[6]": {"system": "NCC (lysis of IM-9 target cells)", "details": "for effect of removal of inhibitor on NCC activation (words): 90 minutes treatment, washed, E:T 40:1; for enhancement of destruction of IM-9 target cells (fold): over control, lower E:T ratios", "method": "FIG. 4. Individual and combined effects of phosphatase inhibitors on NCC cytotoxicity, NCC (7×10^5 cells) were incubated with either media (.diamond.), vanadate (Δ) (5 mM). NaF (.smallcircle.) (20 mM), or both vanadate and NaF (.quadrature.) for the indicated time periods before addition to labeled IM-9 target cells.\nFIG. 5. Effects of removal of Na3 VO4 on NCC activation. NCC were harvested, incubated for three hours, washed, counted and added to duplicate tubes containing either media alone or media containing 2.5, 5 and 10 mM vanadate. Following a 90 minutes incubation time, the cells were either washed and resuspended in media (closed circles) or added directly (open circles) to wells containing ^51 chromium labeled IM-9 target cells (E:T ratio 40:1).\nFIG. 6. Effects of removal of NaF on NCC activation. NCC were harvested, incubated for three hours in media, washed, counted and added to duplicate tubes containing media alone or in the presence of 5, 10 and 20 mM NaF. Following a 90 minutes treatment time, NCC were either washed (closed circles) or added directly (open circles) to wells containing labeled IM-9 target cells (E:t ratio 40:1).\nFIG. 7. Effects of Na3 VO4 on NCC with different levels of cytotoxicity. NCC were harvested from anterior kidneys of fish from three different sources. The cells were incubated in media for three hours, washed, counted and added to test tubes containing either media alone or media with 2.5, 5 and 10 mM vanadate. Following a two hours incubation time, the effectors were added to wells containing labeled IM-9 cells at a 40:1 E:T ratio.\nFIG. 8. Effects of NaF on NCC with different levels of cytotoxicity. NCC were harvested from anterior kidneys of fish from three different sources. The cells were incubated in media for three hours, washed, counted and added to media or media with 5, 10 and 20 mM NaF. Following a two-hour incubation, NCC were added to wells containing ^51 chromium labeled IM-9 target cells for a final E:T ratio of 40:1.\nas §1\nNCC were obtained as previously described [Graves et al. (1984) supra]; Evans et al. (1984) supra]. […] NCC were then washed and resuspended at 20×10^6 cells/ml, and 35 μl aliquots were added to test tubes containing 315 μl media only (media control) or media containing the indicated treatments. After 2 hr incubation, the cells were mixed with ^51 Cr-labeled IM-9 target cells and incubated for 4-6 hours ([…]). Supernatants were harvested and cytotoxicity levels were calculated as previously described.\nMembrane phosphorylation is maintained through a delicate equilibrium between cellular kinase and phosphatase activities.\nIn further studies, NCC were treated with different concentrations of protein phosphatase inhibitors for two hours and labeled IM-9 target cells were added for a four-hour microcytotoxicity assay (Table 8)."}, "[7]": {"system": "NCC (lysis of IM-9 target cells)", "details": "0.05 mM (50 μM), immersion, 10, 24, 48 hours", "method": "FIG. 9. In vivo NCC responses to vanadate treatment. Catfish were acclimated in 10 gal tanks for 24 hours prior to treatment. Vanadate was added directly to the tanks and cytotoxicity assays of NCC from treated and control fish were conducted at 10, 24 and 48 hours post-treatment.\nFish were treated by immersion in 10 gal (static flow) tanks containing the appropriate inhibitor concentrations in 15 liters of dechlorinated water (19°-20° C.). All fish were acclimated to tank conditions 24 hours prior to treatment. Each tank housed twenty fish (approximately 4-5 inches in length). At 24 hour intervals 50% of the water was changed.\nTo determine the ability of vanadate to act in vivo to activate NCC responses, fish were treated by immersion with 0.050 mM vanadate and cytotoxicity was determined at 10, 24 and 48 hours post-treatment."}, "[8]": {"system": "muscles and liver; cardiac performance", "details": "rats; cited from earlier work"}, "[9]": {"system": "calcineurin", "details": "cited from earlier work"}, "[10]": {"system": "cellular carbohydrate biosynthetic pathways", "details": "cited from earlier work"}, "[11]": {"system": "diabetic animals", "details": "cited from earlier work"}, "[12]": {"system": "human prostate gland phosphotyrosyl protein phosphatase", "details": "cited from earlier work"}, "[13]": {"system": "Edwardsiella ictaluri", "method": "FIG. 11. Effects of treatment of catfish with vanadate prior to infection with E. ictaluri. In two different experiments (A and B), catfish were treated with vanadate (indicated concentrations) 48 hours prior to infection with Edwardsiella. Percent cumulative mortality for each treatment group is given. Numbers of fish were 12-15/group/experiment.\nThus, catfish were treated (by immersion) with 0.05 mM vanadate for 48 hours prior to infection with Edwardsiella ictaluri."}},
  "note": "Where two headings read alike, the source gives them in different places.",
  "data": [
    {"substance": "sodium orthovanadate", "values": [
      {"measurement": "% NCC in anterior kidney tissue", "setting": "[1]; 3 hours post-treatment, control 60", "result": 51, "unit": "%"},
      {"measurement": "Total cells/ml", "setting": "[1]; 3 hours, control 3.2", "result": 3.1, "unit": "cells/ml × 10^0"},
      {"measurement": "Total cells/ml", "setting": "[1]; 24 hours, control 2.6", "result": 2.8, "unit": "cells/ml × 10^0"},
      {"measurement": "% NCC in anterior kidney tissue", "setting": "[1]; 24 hours, control 55", "result": 60, "unit": "%"},
      {"measurement": "Total cells/ml", "setting": "[1]; 48 hours, control 2.1", "result": 3.5, "unit": "cells/ml × 10^0"},
      {"measurement": "% NCC in anterior kidney tissue", "setting": "[1]; 48 hours, control 52", "result": 66, "unit": "%"},
      {"measurement": "Total cells/ml", "setting": "[1]; 72 hours, control 2.3", "result": 3.1, "unit": "cells/ml × 10^0"},
      {"measurement": "% NCC in anterior kidney tissue", "setting": "[1]; 72 hours, control 70", "result": 72, "unit": "%"},
      {"measurement": "Total cells/ml", "setting": "[1]; 96 hours, control 3.6", "result": 1.6, "unit": "cells/ml × 10^0"},
      {"measurement": "% NCC in anterior kidney tissue", "setting": "[1]; 96 hours, control 61", "result": 78, "unit": "%"},
      {"measurement": "effect on total number of cells and percentage NCC in anterior kidney tissue", "setting": "[1]; in vivo", "result": "not due to fluctuations in the total number of cells nor in the percentage of NCC"},
      {"measurement": "mortality of infected catfish (words)", "setting": "[2]", "result": "mortality was reduced"},
      {"measurement": "protein phosphatase activity", "setting": "[3]", "result": "vanadate but not fluoride inhibited protein phosphatase activity"},
      {"measurement": "Na^+ /K^+ ATPase inhibition", "setting": "[4]", "result": "significantly inhibited"},
      {"measurement": "Percent Specific Release (stressed fish)", "setting": "[5]; Na3 VO4 5.0 mM", "result": 9.9, "unit": "%"},
      {"measurement": "Percent Specific Release (stressed fish)", "setting": "[5]; Na3 VO4 10.0 mM", "result": 13.1, "unit": "%"},
      {"measurement": "Percent Specific Release", "setting": "[6]; 5 mM, E:T 10, media 39", "result": 63, "unit": "%"},
      {"measurement": "Percent Specific Release", "setting": "[6]; 5 mM, E:T 25, media 4", "result": 29, "unit": "%"},
      {"measurement": "Percent Specific Release", "setting": "[6]; 5 mM, E:T 50, media 21", "result": 46, "unit": "%"},
      {"measurement": "Percent Specific Release", "setting": "[6]; 10 mM, E:T 10, media 39", "result": 62, "unit": "%"},
      {"measurement": "Percent Specific Release", "setting": "[6]; 10 mM, E:T 25, media 4", "result": 40, "unit": "%"},
      {"measurement": "Percent Specific Release", "setting": "[6]; 10 mM, E:T 50, media 21", "result": 49, "unit": "%"},
      {"measurement": "effect of removal of inhibitor on NCC activation (words)", "setting": "[6]", "result": "slightly reduced levels of NCC cytotoxicity"},
      {"measurement": "effect of removal of inhibitor on NCC activation (words)", "setting": "[6]; listed as sodium vanadate", "result": "largely retained"},
      {"measurement": "enhancement of destruction of IM-9 target cells (fold)", "setting": "[6]; listed as Sodium vanadate", "result": "approximately six- to eightfold"},
      {"measurement": "enhancement of destruction of IM-9 target cells (fold)", "setting": "[6]; listed as sodium vanadate", "result": "as much as six- to eightfold"},
      {"measurement": "in vivo NCC cytotoxicity (words)", "setting": "[7]; listed as orthovanadate", "result": "significantly increased cytotoxicity 48 hours post-treatment"},
      {"measurement": "in vivo NCC cytotoxicity (words)", "setting": "[7]; listed as vanadate", "result": "large increases in cytotoxicity by 48 hours"},
      {"measurement": "cardiac performance", "setting": "[8]", "result": "improved cardiac performance"},
      {"measurement": "glucose transport into muscles and liver", "setting": "[8]", "result": "stimulated glucose transport into muscles and liver"},
      {"measurement": "calcineurin-mediated dephosphorylation", "setting": "[9]", "result": "fluoride, but not vanadate inhibited"},
      {"measurement": "glucose oxidation", "setting": "[10]", "result": "stimulation of glucose oxidation"},
      {"measurement": "glycogen synthetase activity", "setting": "[10]", "result": "stimulation of glycogen synthetase activity"},
      {"measurement": "insulin activity", "setting": "[10]", "result": "prolongation of insulin activity"},
      {"measurement": "insulin binding", "setting": "[10]", "result": "augmentation of insulin binding"},
      {"measurement": "blood glucose levels in diabetic animals", "setting": "[11]; oral, 15 μM in drinking water", "result": "normalization of blood glucose levels in diabetic animals"},
      {"measurement": "time to reversal of effects after suspension of treatment", "setting": "[11]; rats", "result": "two"},
      {"measurement": "human prostate gland phosphotyrosyl protein phosphatase", "setting": "[12]", "result": "fluoride, but not vanadate inhibited human prostate gland phosphotyrosyl protein phosphatase"},
      {"measurement": "reduction in mortality", "setting": "[13]; 0.05 mM pretreatment 48 hours, FIG. 11A", "result": 27, "unit": "%"},
      {"measurement": "reduced mortality", "setting": "[13]; 0.05 mM pretreatment, 13-14 days post infection, FIG. 11B", "result": 54, "unit": "%"},
      {"measurement": "mortality / resistance after pretreatment (words)", "setting": "[13]; 0.05 mM, 48 hours prior to infection, listed as sodium orthovanadate", "result": "produced resistance in catfish against the Edwardsiella pathogen"},
      {"measurement": "survival at 28 days post-infection", "setting": "[13]; experiment B", "result": "all treated catfish were still alive"}
    ]}
  ]
}
